Assay results from patent US20230151065A1, “MULTI-DISULFIDE-BOND LONG-CHAIN PEPTIDE WITH NEURO[…], PHARMACEUTICAL COMPOSITION AND APPLICATION” (priority 2018, published 2023).
Where no end group is shown, it is not given here.

Assays:
Type in all cases: cell-based
[1] = system: primary cultured SD fetal rat cortical neurons after OGD damage; test: OGD damage of cortical neurons, mitochondrial membrane potential (JC-1, flow cytometer); settings: OGD 2 h, 24 h reoxygenation; ABPPk2 8, 40, 200 ng/ml; obvious dose-effect relationship
Description: The suspension was filtered with a 400-mesh screen, centrifuged at 1000 rpm for 5 min, and blown to form the single cell suspension. DMEM high glucose complete medium (containing 10% fetal bovine serum) was inoculated in a culture dish or culture plate pre-coated with polylysine (PLL) to culture in 5% CO2 incubator with saturated humidity at 37° C. After the cells were cultured for 4 h to adhere to the wall, the cells were cultured with neuron culture medium (neurobasal+2% B27) for 3 d to observe the growth of neurons. The culture medium containing cytarabine (the final concentration of cytarabine was 2.5 μg/ml) was substituted with half quantity to culture for 3d to inhibit the growth of glial cells and miscellaneous cells to obtain purely cultured primary cortical nerve cells. The purity of the cortical neurons was identified by immunocytochemical staining as more than 90%. […]
(5) Effect of ABPPk2 on mitochondrial membrane potential of cortical neurons after OGD damage: cortical neurons were inoculated in a 6-well plate at 1×10^6 cells/ml; 2 ml of cell suspension was added to each well; and the cortical neurons were cultured to the 7th day. […] The mitochondrial membrane potential of the cortical neurons after OGD damage was detected by a JC-1 staining kit and a flow cytometer. […]

[2] = system: primary fetal rat hippocampal neurons; test: Growth cones and neurite growth of hippocampal neurons, immunocytochemical staining; settings: vs negative control
Description: (§1) (1) Primary culture of fetal rat hippocampal neurons: after a rat pregnant for 17 days was anesthetized, a fetal rat was taken out under sterile conditions; the brain of the fetal rat was taken out on ice; the hippocampus was carefully taken out under a dissecting microscope; and the blood vessel membranes were removed. 0.125% trypsin/EDTA was digested at 37° C. for 10 min, and the digestion was stopped by adding the DMEM complete medium containing 10% FBS. Cell debris were removed through centrifugal at 1000 rpm for 5 min; the DMEM complete medium was added to resuspend the cells; the cells were gently blown until a single cell suspension was formed; and the cells were inoculated at an appropriate density on a culture plate (dish) pre-coated with polylysine (PLL) and cultured at 37° C., 5% CO2 incubator. After 4 h, the cells were adhered to the wall; the DMEM complete medium was discarded and replaced with neurobasal medium containing different concentrations of ABPPk2 (the concentrations of ABPPk2 were 4 ng/ml, 20 ng/ml and 100 ng/ml); the neurobasal medium containing 10 ng/ml BDNF was used as the positive control group, and neurobasal was used as the negative control group.
(4) The immunocytochemical staining method was used to observe the effect of ABPPk2 on the growth cones of primary fetal rat hippocampal neuron neurites. Primary hippocampal neurons were cultured according to the steps in (1), and the cells were inoculated on small round slides pre-coated with PLL at a density of 5×10^4, and then placed on a 24-well culture plate for culturing. Grouping and treatment were as described above. After 24 h, double-labeled immunocytofluorescent chemical staining of β-tubulin3 (TRITC) and F-actin (FITC) was conducted; the growth of the neurons was observed under a laser confocal microscope; and the area of the neuron growth cone and the length of filopodia were counted, as shown in FIG. 23.
(5) The immunocytochemical staining method was used to observe the effect of ABPPk2 on the growth of primary fetal rat hippocampal neuron neurites. Primary hippocampal neurons were cultured according to the steps in (1), and the cells were inoculated on small round slides pre-coated with PLL at a density of 5×10^4, and then placed on a 24-well culture plate for culturing. Grouping and treatment were as described above. […] The length of the neurites started from the axon hillock of the cell body to the top of the axon. The number of the neurites from the neuron cell bodies refers to the neurites directly connected with the cell bodies, as shown in FIG. 24.
(6) β-tubulin3 […]; the growth of the neurites was observed under the laser confocal microscope; the number of neurite branches and the proportion of the neurites with different lengths were counted; and the number of neurite branches refers to the number of branches of the neurites in a circle with a neuron cell body as the center and a radius of 100 μm.

[3] = system: primary fetal rat hippocampal neurons; test: Growth of hippocampal neurons, live cell station; settings: ABPPk2 100 ng/ml, observed for 48 h
Description: as §1
(3) Neuron growth was observed by a live cell station: the hippocampal neuron single cell suspension obtained in (1) was inoculated on a culture plate pre-coated with PLL at a cell density of 5×10^5. […]

[4] = ABPPk2 4, 20, 100 ng/ml, 12 h as printed (24 h in method)

In the case of “Cys-Leu-Glu-Ser-Gly-Thr-Ser-Cys-Ile-Pro-Gly-Ala-Gln-His-Asn-Cys-Cys-Ser-Gly-Val-Cys-Val-Pro-Ile-Val-Thr-Ile-Phe-Tyr-Gly-Val-Cys-Tyr (CLESGTSCIPGAQHNCCSGVCVPIVTIFYGVCY; disulfide (positions not given here); not fully specified (bridges); also: three disulfide bonds, pairing not given here) [ABPPk2, 33 amino acid polypeptide isolated from the extract of Achyranthes bidentata Blume, three pairs of disulfide bonds]”, the mitochondrial membrane potential [1] is reported as “can alleviate the decline in mitochondrial membrane potential”, the “area of the neuron growth cone” value [2, 4] is reported as “the area of the growth cone can be significantly increased” and the length of filopodia [2, 4] is reported as “the length of the filopodia can be increased”. For the same substance, the “length of the neurites” value ([2]; ABPPk2 for 24 h) was “the extension of hippocampal neuronal neurites can be significantly promoted”, the “number of the neurites from the neuron cell bodies” value ([2]; ABPPk2 for 24 h) was “the number of the neurites from the neuron cell bodies can be significantly increased” and the “number of neurite branches” value ([2]; ABPPk2 for 48 h) was “increased significantly”. For the same substance, the “proportion of long neurite neurons” value ([2]; ABPPk2 for 48 h) was “significantly higher than that of the negative control group” and the “growth of hippocampal neurons (live cell station)” value [3] was “can promote the growth of the hippocampal neurons and the extension of neurites”.
